Experimental data taken from patent US12173018B2, “Penicillin-binding protein inhibitors” (priority 2018, dated 2024).
≈ marks a conversion by molar mass, not a printed value. Counter-ions that a name gives are not always drawn. Like-named read-outs stand apart in the source and are kept apart here.

Legend:
[1] = test system: engineered strain of Escherichia coli harboring CTX-M15; assay: microbe, parasite or virus in culture; type: cell-based; conditions: Escherichia coli, read-out: Microbiological Activity (MIC in mg/L), E. coli DH5α/pLBII-CTX-M15, engineered strain producing CTX-M15
E. coli PBP3 = E. coli PBP3 (Escherichia coli (strain K12), UniProt P0AD68); assay: E. coli PBP3 Bocillin-FL fluorescence polarization competition binding assay
Sequence of E. coli PBP3 (P0AD68 whole entry): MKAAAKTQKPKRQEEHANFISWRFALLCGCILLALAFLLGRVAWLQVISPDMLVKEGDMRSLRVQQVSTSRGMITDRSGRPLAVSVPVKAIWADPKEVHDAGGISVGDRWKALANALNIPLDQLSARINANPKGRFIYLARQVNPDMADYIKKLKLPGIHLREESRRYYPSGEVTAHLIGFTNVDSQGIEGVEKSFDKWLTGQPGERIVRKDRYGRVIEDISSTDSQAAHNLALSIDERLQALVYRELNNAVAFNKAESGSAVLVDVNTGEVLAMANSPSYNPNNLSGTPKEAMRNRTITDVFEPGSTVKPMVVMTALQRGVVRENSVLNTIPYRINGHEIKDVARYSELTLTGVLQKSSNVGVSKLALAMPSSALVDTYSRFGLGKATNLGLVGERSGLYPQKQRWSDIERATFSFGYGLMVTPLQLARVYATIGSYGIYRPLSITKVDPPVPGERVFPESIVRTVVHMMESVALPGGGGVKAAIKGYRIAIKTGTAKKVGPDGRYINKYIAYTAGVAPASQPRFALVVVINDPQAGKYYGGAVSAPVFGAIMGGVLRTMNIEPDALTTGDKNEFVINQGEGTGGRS
In short: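 Competition against 0.1 μM Bocillin-FL for binding to 1.5 μM purified protein, read by fluorescence polarization for 60 min. Compounds tested from 0 to 1000 μM; EC50 taken as the concentration reducing probe binding.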

E. coli PBP1b = E. coli PBP1b (Escherichia coli (strain K12), UniProt P02919); assay: Radioligand competition binding assay with 14C-labeled boronic acid probe, PBP1b
Sequence of E. coli PBP1b (P02919 whole entry): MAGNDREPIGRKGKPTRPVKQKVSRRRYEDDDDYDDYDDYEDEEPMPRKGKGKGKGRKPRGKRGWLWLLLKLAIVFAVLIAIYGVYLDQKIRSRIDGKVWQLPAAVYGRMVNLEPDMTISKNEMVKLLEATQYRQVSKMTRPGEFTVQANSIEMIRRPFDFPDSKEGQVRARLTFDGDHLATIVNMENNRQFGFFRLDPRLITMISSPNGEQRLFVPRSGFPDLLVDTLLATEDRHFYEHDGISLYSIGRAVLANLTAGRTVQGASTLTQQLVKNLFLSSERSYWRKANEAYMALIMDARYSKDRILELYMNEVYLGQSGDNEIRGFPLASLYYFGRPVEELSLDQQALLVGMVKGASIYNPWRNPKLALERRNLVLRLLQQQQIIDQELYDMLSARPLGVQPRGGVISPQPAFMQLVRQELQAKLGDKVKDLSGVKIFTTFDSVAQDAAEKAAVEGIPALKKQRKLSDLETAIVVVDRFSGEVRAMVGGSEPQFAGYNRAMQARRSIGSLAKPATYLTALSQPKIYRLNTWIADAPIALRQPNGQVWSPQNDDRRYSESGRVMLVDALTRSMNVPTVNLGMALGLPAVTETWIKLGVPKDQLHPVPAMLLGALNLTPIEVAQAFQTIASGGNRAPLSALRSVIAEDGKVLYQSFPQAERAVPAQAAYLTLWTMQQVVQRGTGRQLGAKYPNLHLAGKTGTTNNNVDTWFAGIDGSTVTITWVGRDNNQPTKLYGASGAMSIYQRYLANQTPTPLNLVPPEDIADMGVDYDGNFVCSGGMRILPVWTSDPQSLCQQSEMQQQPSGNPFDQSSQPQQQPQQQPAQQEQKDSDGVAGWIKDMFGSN
Description: To determine the ability of boronic acid-based test PBP inhibitors to bind Penicillin Binding Proteins (PBPs), a radio-labelled boronic acid PBP inhibitor
[drawing 751] was used in competition binding assays to determine boronic acid PBP inhibitor binding to PBP1a or PBP1b from Escherichia coli. PBP1a and PBP1b were purified as described previously (Bertsche, U.; et al., J. Biol. Chem. 2005, 280 (45), 38096-38101; Born, P.; et al., J. Biol. Chem. 2006. 281 (37), 26985-26993). To establish assay conditions for competition binding, an enzyme titration/saturation binding experiment was performed. Saturation binding was performed in a buffer comprised of 20 mM Tris (pH 7.5), 500 mM NaCl and 0.1% (v/v) TritonX-100, with PBP1a/PBP1b at a final concentration of 0.1 μM and Compound A at final concentrations ranging from 0-100 μM. Mixtures were incubated for 60 minutes, then applied to Zeba Spin Desalting columns or plates (ThermoFisher Scientific) and centrifuged at 1000-1500×g for 2 minutes. The flow through, containing PBP bound with Compound A, was recovered and 100 μL mixed with 5 mL of UltimaGold liquid scintillation cocktail (Perkin Elmer), and the radioactivity counted using a Beckman Coulter LS 6500 Multipurpose scintillation counter. PBP binding of Compound A approached saturation at 20 μM of ^14C-labeled probe. The competition binding assay was validated using the beta-lactam ampicillin, with Compound A at a final concentration of 20 μM, PBP1a/PBP1b at a final concentration of 0.1 μM. PBP1a/PBP1b was incubated with ampicillin in a 96-well microplate for 60 minutes, then Compound A was added and the mixtures incubated for an additional 60 minutes. The mixtures were then applied to Zeba Spin desalting plates and centrifuged at 1000×g for 2 minutes. The flow through was recovered and 100 μl mixed with 5 ml of UltimaGold liquid scintillation cocktail and the radioactivity counted. […] Binding assays with boronic acid PBP inhibitors were performed in an identical fashion. The potency of boronic acid PBP inhibitors was reported as the EC50 value.

[2] = fluorescence polarization competition binding with Bocillin-FL, read-out: E. coli K12 PBP3 Potency

Row | SMILES | MIC [1] | EC50 (E. coli PBP3) | EC50 (E. coli PBP1b) | EC50 (E. coli PBP3; [2])
1 | CS(=O)(=O)c1ccc(C(NC(=O)N2CCN(CCF)C(=O)C2=O)C(=O)N[C@H]2Cc3cccc(C(=O)O)c3OB2O)cc1 (stereo partly drawn) [Example 119, (3R)-3-(2-(4-(2-fluoroethyl)-2,3-dioxopiperazine-1-carboxamido)-2-(4-(methylsulfonyl)phenyl)acetamido)-2-hydroxy-3,4-dihydro-2H-benzo[e][1,2]oxaborinine-8-carboxylic acid] | 32 to 64 mg/L (≈ 52.9 to 106 µM) | 30 to 500 µM | > 100 µM | 
2 | CCN1CCN(C(=O)NC(C(=O)N[C@H]2Cc3cccc(C(=O)O)c3OB2O)C2CCN(S(N)(=O)=O)CC2)C(=O)C1=O (stereo partly drawn) [Example 77, (3R)-3-(2-(4-ethyl-2,3-dioxopiperazine-1-carboxamido)-2-(1-sulfamoylpiperidin-4-yl)acetamido)-2-hydroxy-3,4-dihydro-2H-benzo[e][1,2]oxaborinine-8-carboxylic acid] | 128 to 256 mg/L (≈ 215 to 431 µM) | 30 to 500 µM | < 10 µM | 
3 | CCN1CCN(C(=O)NC(C(=O)N[C@H]2Cc3cccc(C(=O)O)c3OB2O)c2ccc(O)cc2Cl)C(=O)C1=O (stereo partly drawn) [Example 88, (3R)-3-(2-(2-chloro-4-hydroxyphenyl)-2-(4-ethyl-2,3-dioxopiperazine-1-carboxamido)acetamido)-2-hydroxy-3,4-dihydro-2H-benzo[e][1,2]oxaborinine-8-carboxylic acid] | 128 to 256 mg/L (≈ 229 to 458 µM) |  | < 10 µM | < 30 µM
4 | CCN1CCN(C(=O)N[C@H](C(=O)N[C@H]2Cc3cccc(C(=O)O)c3OB2O)C2(CO)CC2)C(=O)C1=O [Example 63, (R)-3-((S)-2-(4-ethyl-2,3-dioxopiperazine-1-carboxamido)-2-(1-(hydroxymethyl)cyclopropyl)acetamido)-2-hydroxy-3,4-dihydro-2H-benzo[e][1,2]oxaborinine-8-carboxylic acid] | 128 to 256 mg/L (≈ 255 to 510 µM) |  | < 10 µM | > 500 µM
5 | CCN1CCN(C(=O)NC(C(=O)N[C@H]2Cc3cccc(C(=O)O)c3OB2O)C2CCN(CC(=O)O)CC2)C(=O)C1=O (stereo partly drawn) [Example 72, (3R)-3-(2-(1-(carboxymethyl)piperidin-4-yl)-2-(4-ethyl-2,3-dioxopiperazine-1-carboxamido)acetamido)-2-hydroxy-3,4-dihydro-2H-benzo[e][1,2]oxaborinine-8-carboxylic acid, trifluoroacetic acid salt] | 128 to 256 mg/L | 30 to 500 µM | < 10 µM | 
6 | CCN1CCN(C(=O)NC(CNS(N)(=O)=O)C(=O)N[C@H]2Cc3cccc(C(=O)O)c3OB2O)C(=O)C1=O (stereo partly drawn) [Example 68, (3R)-3-(2-(4-ethyl-2,3-dioxopiperazine-1-carboxamido)-3-(sulfamoylamino)propanamido)-2-hydroxy-3,4-dihydro-2H-benzo[e][1,2]oxaborinine-8-carboxylic acid] | 32 to 64 mg/L (≈ 59.2 to 118 µM) |  | < 10 µM | > 500 µM
7 | CCN1CCN(C(=O)N[C@@H](C(=O)N[C@H]2Cc3cccc(C(=O)O)c3OB2O)C2CCN(C(=N)N)CC2)C(=O)C1=O [Example 91, (R)-3-((R)-2-(1-carbamimidoylpiperidin-4-yl)-2-(4-ethyl-2,3-dioxopiperazine-1-carboxamido)acetamido)-2-hydroxy-3,4-dihydro-2H-benzo[e][1,2]oxaborinine-8-carboxylic acid] | 128 to 256 mg/L (≈ 230 to 459 µM) | > 500 µM | < 10 µM | 
8 | CCN1CCN(C(=O)N[C@@H](CNS(C)(=O)=O)C(=O)N[C@H]2Cc3cccc(C(=O)O)c3OB2O)C(=O)C1=O [Example 84, (R)-3-((S)-2-(4-ethyl-2,3-dioxopiperazine-1-carboxamido)-3-(methylsulfonamido)propanamido)-2-hydroxy-3,4-dihydro-2H-benzo[e][1,2]oxaborinine-8-carboxylic acid] | 128 to 256 mg/L (≈ 237 to 475 µM) | 30 to 500 µM | < 10 µM | 
9 | CCN1CCN(C(=O)NC(C(=O)N[C@H]2Cc3cccc(C(=O)O)c3OB2O)C2CCCC2)C(=O)C1=O (stereo partly drawn) [Example 116, (3R)-3-(2-cyclopentyl-2-(4-ethyl-2,3-dioxopiperazine-1-carboxamido)acetamido)-2-hydroxy-3,4-dihydro-2H-benzo[e][1,2]oxaborinine-8-carboxylic acid] | 128 to 256 mg/L (≈ 256 to 512 µM) |  | 10 to 100 µM | < 30 µM
10 | CCN1CCN(C(=O)N[C@H](C(=O)N[C@H]2Cc3cccc(C(=O)O)c3OB2O)C2CCN(C(=N)N)CC2)C(=O)C1=O [Example 92, (R)-3-((S)-2-(1-carbamimidoylpiperidin-4-yl)-2-(4-ethyl-2,3-dioxopiperazine-1-carboxamido)acetamido)-2-hydroxy-3,4-dihydro-2H-benzo[e][1,2]oxaborinine-8-carboxylic acid] | 128 to 256 mg/L (≈ 230 to 459 µM) | > 500 µM | < 10 µM | 
11 | CCN1CCN(C(=O)N[C@H](CNCC(=O)O)C(=O)N[C@H]2Cc3cccc(C(=O)O)c3OB2O)C(=O)C1=O [Example 73, (R)-3-((R)-3-((carboxymethyl)amino)-2-(4-ethyl-2,3-dioxopiperazine-1-carbox-amido)propanamido)-2-hydroxy-3,4-dihydro-2H-benzo[e][1,2]oxaborinine-8-carboxylic acid, trifluoroacetic acid salt] | 128 to 256 mg/L |  | > 100 µM | > 500 µM
12 | CCN1CCN(C(=O)NC(C(=O)N[C@H]2Cc3cccc(C(=O)O)c3OB2O)c2cnn(C)c2)C(=O)C1=O (stereo partly drawn) [Example 60, (3R)-3-(2-(4-ethyl-2,3-dioxopiperazine-1-carboxamido)-2-(1-methyl-1H-pyrazol-4-yl)acetamido)-2-hydroxy-3,4-dihydro-2H-benzo[e][1,2]oxaborinine-8-carboxylic acid] | 32 to 64 mg/L (≈ 62.5 to 125 µM) | 30 to 500 µM | 10 to 100 µM | 
13 | CCN1CCN(C(=O)NC(C(=O)N[C@H]2Cc3cccc(C(=O)O)c3OB2O)c2ccc(S(C)(=O)=O)cc2)C(=O)C1=O (stereo partly drawn) [Example 118, (3R)-3-(2-(4-ethyl-2,3-dioxopiperazine-1-carboxamido)-2-(4-(methylsulfonyl)phenyl)acetamido)-2-hydroxy-3,4-dihydro-2H-benzo[e][1,2]oxaborinine-8-carboxylic acid] | 128 to 256 mg/L (≈ 218 to 437 µM) |  | > 100 µM | < 30 µM
14 | CCN1CCN(C(=O)NC(C(=O)N[C@H]2Cc3cccc(C(=O)[O-])c3OB2O)c2ccc[n+](C)c2)C(=O)C1=O (stereo partly drawn) [Example 106, (3R)-3-(2-(4-ethyl-2,3-dioxopiperazine-1-carboxamido)-2-(1-methylpyridin-1-ium-3-yl)acetamido)-2-hydroxy-3,4-dihydro-2H-benzo[e][1,2]oxaborinine-8-carboxylate] | 32 to 64 mg/L (≈ 61.1 to 122 µM) |  | < 10 µM | > 500 µM
15 | CCN1CCN(C(=O)NC(C(=O)N[C@H]2Cc3cccc(C(=O)O)c3OB2O)c2ccc(OCCO)cc2)C(=O)C1=O (stereo partly drawn) [Example 74, (3R)-3-(2-(4-ethyl-2,3-dioxopiperazine-1-carboxamido)-2-(4-(2-hydroxyethoxy)phenyl)acetamido)-2-hydroxy-3,4-dihydro-2H-benzo[e][1,2]oxaborinine-8-carboxylic acid] | 128 to 256 mg/L (≈ 225 to 450 µM) | 30 to 500 µM | > 100 µM | 
16 | CCN1CCN(C(=O)NC(C(=O)N[C@H]2Cc3cccc(C(=O)O)c3OB2O)c2ccc(CCN)cc2)C(=O)C1=O (stereo partly drawn) [Example 64, (3R)-3-(2-(4-(2-aminoethyl)phenyl)-2-(4-ethyl-2,3-dioxopiperazine-1-carboxamido)acetamido)-2-hydroxy-3,4-dihydro-2H-benzo[e][1,2]oxaborinine-8-carboxylic acid] | 128 to 256 mg/L (≈ 232 to 464 µM) |  | 10 to 100 µM | > 500 µM
17 | CCN1CCN(C(=O)NC(C(=O)N[C@H]2Cc3cccc(C(=O)O)c3OB2O)c2ccc(O)nc2Cl)C(=O)C1=O (stereo partly drawn) [Example 67, (3R)-3-(2-(2-chloro-6-hydroxypyridin-3-yl)-2-(4-ethyl-2,3-dioxopiperazine-1-carboxamido)acetamido)-2-hydroxy-3,4-dihydro-2H-benzo[e][1,2]oxaborinine-8-carboxylic acid] | 128 to 256 mg/L (≈ 229 to 457 µM) | 30 to 500 µM | 10 to 100 µM | 
18 | CCN1CCN(C(=O)NC(CNC(C)=O)C(=O)N[C@H]2Cc3cccc(C(=O)O)c3OB2O)C(=O)C1=O (stereo partly drawn) [Example 69, (3R)-3-(3-acetamido-2-(4-ethyl-2,3-dioxopiperazine-1-carboxamido)propanamido)-2-hydroxy-3,4-dihydro-2H-benzo[e][1,2]oxaborinine-8-carboxylic acid] | 128 to 256 mg/L (≈ 254 to 509 µM) |  | < 10 µM | > 500 µM
